Data as given in EP4653437A2 (Innovo Therapeutics Inc., priority 2023, dated 2024).

Legend:
human 15-PGDH = biological target: T1, human 15-PGDH (Homo sapiens, UniProt P15428); assay: Evaluation of 15-PGDH inhibitory activity (fluorescence enzyme assay, NAD+/PGE2); type: biochemical; conditions: human 15-PGDH enzyme, fluorescence Vmax
T1 construct: purchased R&D System 5660-DH
T1 sequence (P15428 1-266): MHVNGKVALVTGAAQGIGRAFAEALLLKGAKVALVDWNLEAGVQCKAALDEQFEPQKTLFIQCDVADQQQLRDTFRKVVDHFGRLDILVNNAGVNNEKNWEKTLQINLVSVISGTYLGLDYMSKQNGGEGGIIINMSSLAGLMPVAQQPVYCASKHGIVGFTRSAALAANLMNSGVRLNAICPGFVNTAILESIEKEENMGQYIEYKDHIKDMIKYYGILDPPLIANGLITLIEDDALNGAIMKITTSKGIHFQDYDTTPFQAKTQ
Procedure: 15-PGDH inhibition activity of Example compounds was measured as follows. 6.7 ng of human 15-PGDH (R&D System# 5660-DH) enzyme (10 µL) was added to a black 96 well plate, 60 µL of buffer (50 mM Tris-HCl, pH 7.5, 0.01% Tween 20) was added, and 10 µL of 200 µM β-Nicotinamide adenine dinucleotide sodium salt (Sigma, Cat# N0632-5G) was added. 10 µL of (10x) compound solution in DMSO was added and reacted for 10 minutes at room temperature.

A549 cells = assay: Measurement of PGE2-increasing activity in A549 cells (IL-1β stimulated, PGE2 quantified in supernatant); type: cell-based; conditions: Homo sapiens, 24 h; concentration of 1 µM of each compound; IL-1β treated A549 cells; read-out: Increased PGE2 production in A549 cells
Method in brief: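 A549 cells grown 24 h in F12K with 10% FBS, then switched to serum-free medium with or without IL-1β and compound (0.1% DMSO final). After 24 h at 37 °C, 5% CO2, supernatant PGE2 quantified by immunoassay.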

| IC50 (human 15-PGDH) [nM] | Structure (SMILES) | fold induction at 1 µM (A549 cells) |
| --- | --- | --- |
| ≤ 100 | O=C1NCc2ccc(Nc3cccc4c(C(=O)N5CCCCC5)cnn34)cc21 [Example 212, 6-[[3-(piperidine-1-carbonyl)pyrazolo[1,5-a]pyridin-7-yl]amino]isoindolin-1-one] | > 1.5 |
| ≤ 100 | Cn1nc2cc(-c3cccc4c(C(=O)N5CCCCC5)cnn34)ccn2c1=O [Example 252, 2-methyl-7-(3-(piperidine-1-carbonyl)pyrazolo[1,5-a]pyridin-7-yl)-[1,2,4]triazolo[4,3-a]pyridin-3(2H)-one] | > 1.5 |
| ≤ 100 | O=C1NCc2ccc(-c3cccc4c(C(=O)N5CCC6(CCC6)C5)cnn34)cc21 [Example 391, 6-(3-(6-azaspiro[3.4]octane-6-carbonyl)pyrazolo[1,5-a]pyridin-7-yl)isoindolin-1-one] | > 1.5 |
| ≤ 100 | O=C(c1cncc(-c2cccc3c(C(=O)N4CCCCC4)cnn23)c1)N1CC(F)C1 [Example 192, (3-fluoroazetidin-1-yl)(5-(3-(piperidine-1-carbonyl)pyrazolo[1,5-a]pyridin-7-yl)pyridin-3-yl)methanone] | > 1.5 |
| ≤ 100 | O=C(c1ccc(-c2cccc3c(C(=O)N4CCCCC4)cnn23)cn1)N1CCNCC1 [Example 82, piperazin-1-yl(5-(3-(piperidine-1-carbonyl)pyrazolo[1,5-a]pyridin-7-yl)pyridin-2-yl)methanone] | < 1.5 |
| ≤ 100 | N#Cc1cc(F)cc(-c2cccc3c(C(=O)N4CCCCC4)cnn23)c1 [Example 291, 3-fluoro-5-(3-(piperidine-1-carbonyl)pyrazolo[1,5-a]pyridin-7-yl)benzonitrile] | > 1.5 |
| ≤ 100 | O=C(c1cnn2c(-c3ccc(F)nc3)cccc12)N1CCCCC1 [Example 19, (7-(6-fluoropyridin-3-yl)pyrazolo[1,5-a]pyridin-3-yl)(piperidin-1-yl)methanone] | > 1.5 |
| ≤ 100 | O=C(c1cnn2c(-c3ccc(N4CC(F)(F)C4)nc3)cccc12)N1CCCCC1 [Example 209, (7-(6-(3,3-difluoroazetidin-1-yl)pyridin-3-yl)pyrazolo[1,5-a]pyridin-3-yl)(piperidin-1-yl)methanone] | > 1.5 |
| ≤ 100 | O=C1NCCc2ncc(-c3cccc4c(C(=O)N5CCCCC5)cnn34)cc21 [Example 195, 3-(3-(piperidine-1-carbonyl)pyrazolo[1,5-a]pyridin-7-yl)-7,8-dihydro-1,6-naphthyridin-5(6H)-one] | > 1.5 |
| ≤ 100 | O=C(Nc1cccc(-c2cccc3c(C(=O)N4CCCCC4)cnn23)c1)c1cccnc1 [Example 95, N-(3-(3-(piperidine-1-carbonyl)pyrazolo[1,5-a]pyridin-7-yl)phenyl)nicotinamide] | > 1.5 |
| ≤ 100 | O=C(c1cnn2c(-c3ccc(N4CC(F)C4)nc3)cccc12)N1CCCCC1 [Example 208, (7-(6-(3-fluoroazetidin-1-yl)pyridin-3-yl)pyrazolo[1,5-a]pyridin-3-yl)(piperidin-1-yl)methanone] | > 1.5 |
| ≤ 100 | CC(C)N1CCN(C(=O)c2ccc(-c3cccc4c(C(=O)N5CCCCC5)cnn34)cc2)CC1 [Example 68, (4-isopropylpiperazin-1-yl)(4-(3-(piperidine-1-carbonyl)pyrazolo[1,5-a]pyridin-7-yl)phenyl)methanone] | > 1.5 |
| ≤ 100 | Cc1nc(-c2cncc(-c3cccc4c(C(=O)N5CCCCC5)cnn34)c2)no1 [Example 319, (7-(5-(5-methyl-1,2,4-oxadiazol-3-yl)pyridin-3-yl)pyrazolo[1,5-a]pyridin-3-yl)(piperidin-1-yl)methanone] | > 1.5 |
| ≤ 100 | Cn1nccc1-c1cc(-c2cccc3c(C(=O)N4CCCCC4)cnn23)cc(N2CCOC2=O)n1 [Example 367, 3-(6-(1-methyl-1H-pyrazol-5-yl)-4-(3-(piperidine-1-carbonyl)pyrazolo[1,5-a]pyridin-7-yl)pyridin-2-yl)oxazolidin-2-one] | > 1.5 |
| ≤ 100 | O=C(c1cnn2c(-c3ccc(-n4cc([N+](=O)[O-])cn4)nc3)cccc12)N1CCCCC1 [Example 355, (7-(6-(4-nitro-1H-pyrazol-1-yl)pyridin-3-yl)pyrazolo[1,5-a]pyridin-3-yl)(piperidin-1-yl)methanone] | > 1.5 |
| ≤ 100 | O=C(c1cnn2c(-c3ccc(N4CCOC4=O)nc3)cccc12)N1CCCCC1 [Example 316, 3-(5-(3-(piperidine-1-carbonyl)pyrazolo[1,5-a]pyridin-7-yl)pyridin-2-yl)oxazolidin-2-one] | > 1.5 |
| ≤ 100 | O=C(Nc1ccncc1)c1ccc(-c2cccc3c(C(=O)N4CCCCC4)cnn23)cn1 [Example 88, 5-(3-(piperidine-1-carbonyl)pyrazolo[1,5-a]pyridin-7-yl)-N-(pyridin-4-yl)picolinamide] | > 1.5 |
| ≤ 100 | O=C(c1cnn2c(-c3ccc(Br)nc3)cccc12)N1CCCCC1 [Example 313, (7-(6-bromopyridin-3-yl)pyrazolo[1,5-a]pyridin-3-yl)(piperidin-1-yl)methanone] | > 1.5 |
| ≤ 100 | O=C(c1cnn2c(-c3cc(Cl)cnc3F)cccc12)N1CCCCC1 [Example 283, (7-(5-chloro-2-fluoropyridin-3-yl)pyrazolo[1,5-a]pyridin-3-yl)(piperidin-1-yl)methanone] | < 1.5 |
| ≤ 100 | O=C(c1cnn2c(-c3ccc(N4CC5CCC4CC5)nc3)cccc12)N1CCCCC1 [Example 216, (7-(6-(2-azabicyclo[2.2.2]octan-2-yl)pyridin-3-yl)pyrazolo[1,5-a]pyridin-3-yl)(piperidin-1-yl)methanone] | > 1.5 |
| ≤ 100 | COC(=O)C1CN(c2ccc(-c3cccc4c(C(=O)N5CCCCC5)cnn34)cn2)C1 [Example 219, methyl 1-(5-(3-(piperidine-1-carbonyl)pyrazolo[1,5-a]pyridin-7-yl)pyridin-2-yl)azetidine-3-carboxylate] | > 1.5 |
| ≤ 100 | O=C(c1cnn2c(-c3ccc(F)c(-c4noc(=O)[nH]4)c3)cccc12)N1CCCCC1 [Example 275, 3-[2-fluoro-5-[3-(piperidine-1-carbonyl)pyrazolo[1,5-a]pyridin-7-yl]phenyl]-4H-1,2,4-oxadiazol-5-one] | > 1.5 |
| ≤ 100 | O=C(COc1ccc(Cl)cc1)Nc1ccc(-c2cccc3c(C(=O)N4CCCCC4)cnn23)cn1 [Example 410, 2-(4-chlorophenoxy)-N-[5-[3-(piperidine-1-carbonyl)pyrazolo[1,5-a]pyridin-7-yl]-2-pyridyl]acetamide] | > 1.5 |
| ≤ 100 | O=C(Nc1ccc(-c2cccc3c(C(=O)N4CCCCC4)cnn23)cc1)C1CC1 [Example 100, N-(4-(3-(piperidine-1-carbonyl)pyrazolo[1,5-a]pyridin-7-yl)phenyl)cyclopropanecarboxamide] | > 1.5 |

| Structure (SMILES) | IC50 (human 15-PGDH) [nM] | fold induction at 1 µM (A549 cells) |
| --- | --- | --- |
| O=C(c1cnn2c(-c3ccc(-c4ccoc4)cc3)cccc12)N1CCCCC1 [Example 302, [7-[4-(3-furyl)phenyl]pyrazolo[1,5-a]pyridin-3-yl]-(1-piperidyl)methanone] | ≤ 100 | < 1.5 |
